Key:
[1] = tested on: Vero cells; test: Cytotoxicity assay on Vero cells (microscopic morphology); type: cell-based; set-up: key to Cytotoxicity on Vero cells (cell sheet affected): -: Safe concentration; + 1, +2, + 3, +4: about 25, 50, 75, 100% of cell sheet was affected respectively; + 1, +2, + 3, +4: about 25, 50, 75, 100% of cell sheet was affected respectively; + 1, +2, + 3, +4: about 25, 50, 75, 100% of cell sheet was affected respectively; + 1, +2, + 3, +4: about 25, 50, 75, 100% of cell sheet was affected respectively; M: masked (color of compounds made cells unseen); conditions: for Cytotoxicity on Vero cells (cell sheet affected): 24 h, morphological changes; for Safety effect on Vero cells (in words): Table 1, 24 h
Description: (§1) Compounds: 10 mg were dissolved in 1 mL (10% DMSO and 90% deionized water), sterilized by 1% antibiotic–antimycotic mixture and stored in −20.
(§2) Cells: Vero cell line was used. The cells were propagated in DMEM medium (Lonza, USA) supplemented with 10% fetal bovine serum (Gibco, USA), 1% antibiotic–antimycotic mixture (Lonza, USA).
Cytotoxic effect of compounds was measured by inoculation different doses of compounds on tested cells then examining them microscopically after 24 h to determine any morphological changes that appeared on cells as a result of being subjected to the compounds[46]. Vero cells were seeded onto 96-well plates, which were then incubated for the whole night. After a 24-hour incubation period at 37 °C in a humidified incubator with 5% CO2, compounds were injected at concentrations of 10, 20, 30, 40, 50, 60, 70, 80, 90, and 100 µg /100 µl. Any morphological changes were monitored under a microscope.

[2] = tested on: Cox B virus; test: Plaque reduction assay against Cox B virus; type: cell-based; conditions: for inhibition at 20 µg/mL / inhibition at 40 µg/mL: Vero
Description: as §1, §2
Virus: Cox B virus was propagated and titrated to give final count of 0.9 × 10^5 viral particle/mL.
This test was done according to Tebas et al.[47], In a 12-well plate Vero cells (10^5 cells/mL) were cultivated for 1 day at 37 °C. The Cox B virus was mixed with the safe concentration of the compound and incubated for 1 h at 37 °C before being added to the cells. Following the removal of the growth media, the cells were injected with virus-extract combinations ([…]) and then rinsed with PBS (Phosphate Buffer Saline). Following a one-hour contact period for virus adsorption, the cell monolayer was supplemented with one milliliter of Dulbecco’s Modified Eagles Media (DMEM) containing 2% agarose. The plates were then allowed to solidify and incubated at 37 °C until the development of viral plaques. Formalin (10%) was added for 2 h then plates were stained with crystal violet. Control wells were included where untreated virus was incubated with Vero cells and finally plaques were counted and percentage reduction in plaques formation in comparison to control wells was recorded as following:
% inhibition = (viral count(untreated) - viral count(treated))/viral count(untreated)X100.

[3] = tested on: Cox B virus; test: Mechanism of virus inhibition: virucidal; type: cell-based; conditions: for Viral count (treated): Virucidal, control 1.6 × 10^7
Description: For a compound having an antiviral effect, this might be due to the effect on viral replication, the effect on viral adsorption, or the direct effect on the viral particle. Virucidal[50] the assay was conducted in a 6-well plate with Vero cells that were cultured for two days at 37 °C (10^5 cells/mL). A volume of […] serum-free DMEM containing 1.5 × 10^2 PFU from Cox B was added to the concentration of the compound resulting in viral inhibition, after 1 h incubation, The mixture was diluted three times using serum-free media, which leaves almost no extract but still permits the existence of virus particles to develop on Vero cells. 100 mL of each dilution was then introduced to the Vero cell monolayer. The DMEM overlayer was added to the cell monolayer after a one-hour contact period. The plates were left to solidify then incubated till the appearance of plaques.

[4] = tested on: Cox B virus; test: Mechanism of virus inhibition: viral adsorption; type: cell-based; conditions: for Viral count (treated): Adsorption, control 1.6 × 10^7
Description: (§3) For a compound having an antiviral effect, this might be due to the effect on viral replication, the effect on viral adsorption, or the direct effect on the viral particle.
Viral adsorption[49] Vero cells were cultivated in a 6-well plate (10^5 cells/mL) for 1 day at 37 °C. The compound was applied at different concentrations in […] medium without supplements and coincubated with the cells for 2 h at 4 °C. The virus was coincubated with the pretreatment cells for one hour after the unadsorbed extract was eliminated by washing the cells three times in PBS. Next, 2 mL of DMEM supplemented with 2% agarose were added. The plates were left to solidify and incubated till the appearance of plaques.

[5] = tested on: Cox B virus; test: Mechanism of virus inhibition: viral replication; type: cell-based; conditions: for Viral count (treated): Replication, control 1.6 × 10^7
Description: as §3
Viral replication[48] Assay was carried out in a 6-well plate where Vero cells were cultivated (10^5 cells/ml) for 1 day at 37 °C. The cells were directly inoculated with the virus. After an hour of incubation, unadsorbed viral particles were eliminated by repeatedly washing the cells with PBS.
The compound was applied at different concentrations, and after 1 h contact time, 2 mL of DMEM medium supplemented with 2% agarose were added to the cell monolayer. Plates were left to solidify then incubated till the appearance of plaques.

In the case of `COc1ccc(OC)c(C=C2/C(=N/NC3=NC(=O)CS3)c3ccccc3/C2=N\NC2=NC(=O)CS2)c1` [9a, 2,2’-(((1E,3E)−2-(2,5-dimethoxybenzylidene)−1H-indene-1,3(2H)-diylidene)bis(hydrazin-1-yl-2-ylidene))bis(thiazol-4(5H)-one)], the “Cytotoxicity on Vero cells (cell sheet affected)” value (shortened to “Cytotoxicity on Vero cells”) ([1]; 10 µg/100µl) is reported as “-”, the “Cytotoxicity on Vero cells” value ([1]; 20 µg/100µl) is reported as “-” and the “Cytotoxicity on Vero cells” value ([1]; 30 µg/100µl) is reported as “-”. For the same molecule, the “Cytotoxicity on Vero cells” value ([1]; 40 µg/100µl) was “-”, the “Cytotoxicity on Vero cells” value ([1]; 50 µg/100µl) was “-” and the “Cytotoxicity on Vero cells” value ([1]; 60 µg/100µl) was “-”. The “Safety effect on Vero cells (in words)” value [1] was “highly toxic at low concentration”, the “Viral count (treated)” value ([2]; 20 ug/mL) was 1.6 × 10^7 and the “Viral count (treated)” value ([2]; 40 ug/mL) was 1.6 × 10^7. The inhibition at 20 µg/mL [2] was 0%, the inhibition at 40 µg/mL [2] was 0% and the melting point was 130 to 132 °C.
With `COc1ccc(OC)c(C=C2/C(=N/Nc3nc(C)c(/N=N/c4ccc(C)cc4)s3)c3ccccc3/C2=N\Nc2nc(C)c(/N=N/c3ccc(C)cc3)s2)c1` [7b, 2,2’-(((1E,3E)−2-(2,5-dimethoxybenzylidene)−1H-indene-1,3(2H)-diylidene)bis(hydrazin-1-yl-2-ylidene))bis(4-methyl-5-((E)-p-tolyldiazenyl)thiazole)] the “Cytotoxicity on Vero cells” value ([1]; 10 µg/100µl) was “-”, the “Cytotoxicity on Vero cells” value ([1]; 20 µg/100µl) was “-” and the “Cytotoxicity on Vero cells” value ([1]; 30 µg/100µl) was “-”. For the same molecule, the “Cytotoxicity on Vero cells” value ([1]; 40 µg/100µl) was “-”, the “Cytotoxicity on Vero cells” value ([1]; 50 µg/100µl) was “-” and the “Cytotoxicity on Vero cells” value ([1]; 60 µg/100µl) was “M”. For the same molecule, the “Cytotoxicity on Vero cells” value ([1]; 70 µg/100µl) was “M”, the “Cytotoxicity on Vero cells” value ([1]; 80 µg/100µl) was “M” and the “Cytotoxicity on Vero cells” value ([1]; 90 µg/100µl) was “M”. The “Cytotoxicity on Vero cells” value ([1]; 100 µg/100µl) was “M”, the “Safety effect on Vero cells (in words)” value [1] was “dense and coloured that made masking to the cell sheet” and the “Viral count (treated)” value ([2]; 20 ug/mL) was 1.6 × 10^7. For the same molecule, the “Viral count (treated)” value ([2]; 40 ug/mL) was 1.07 × 10^7, the inhibition at 20 µg/mL [2] was 0% and the inhibition at 40 µg/mL [2] was 33%. For the same molecule, the melting point was 132 to 135 °C.
For `COc1ccc(OC)c(C=C2/C(=N/Nc3nc(C)c(/N=N/c4ccc([N+](=O)[O-])cc4)s3)c3ccccc3/C2=N\Nc2nc(C)c(/N=N/c3ccc([N+](=O)[O-])cc3)s2)c1` [7d, 2,2’-(((1E,3E)−2-(2,5-dimethoxybenzylidene)−1H-indene-1,3(2H)-diylidene)bis(hydrazin-1-yl-2-ylidene))bis(4-methyl-5-((E)-(4-nitrophenyl)diazenyl)thiazole)], the “Cytotoxicity on Vero cells” value ([1]; 10 µg/100µl) was “-”, the “Cytotoxicity on Vero cells” value ([1]; 20 µg/100µl) was “-” and the “Cytotoxicity on Vero cells” value ([1]; 30 µg/100µl) was “-”. For the same molecule, the “Cytotoxicity on Vero cells” value ([1]; 40 µg/100µl) was “-”, the “Cytotoxicity on Vero cells” value ([1]; 50 µg/100µl) was “-” and the “Cytotoxicity on Vero cells” value ([1]; 60 µg/100µl) was “-”. For the same molecule, the “Cytotoxicity on Vero cells” value ([1]; 70 µg/100µl) was “-”, the “Cytotoxicity on Vero cells” value ([1]; 80 µg/100µl) was “-” and the “Cytotoxicity on Vero cells” value ([1]; 90 µg/100µl) was “-”. For the same molecule, the “Cytotoxicity on Vero cells” value ([1]; 100 µg/100µl) was “-”, the “Safety effect on Vero cells (in words)” value [1] was “higher safety” and the “Viral count (treated)” value ([2]; 20 ug/mL) was 1.6 × 10^7. For the same molecule, the “Viral count (treated)” value ([2]; 40 ug/mL) was 0.54 × 10^7, the inhibition at 20 µg/mL [2] was 0% and the inhibition at 40 µg/mL [2] was 66%. It also gave a melting point of 181 to 183 °C.
In the case of `COc1ccc(OC)c(C=C2/C(=N/Nc3nc(C)c(/N=N/c4ccccc4)s3)c3ccccc3/C2=N\Nc2nc(C)c(/N=N/c3ccccc3)s2)c1` [7a, 2,2’-(((1E,3E)−2-(2,5-dimethoxybenzylidene)−1H-indene-1,3(2H)-diylidene)bis(hydrazin-1-yl-2-ylidene))bis(4-methyl-5-((E)-phenyldiazenyl)thiazole)], the “Cytotoxicity on Vero cells” value ([1]; 10 µg/100µl) is reported as “-”, the “Cytotoxicity on Vero cells” value ([1]; 20 µg/100µl) is reported as “-” and the “Cytotoxicity on Vero cells” value ([1]; 30 µg/100µl) is reported as “-”. For the same molecule, the “Cytotoxicity on Vero cells” value ([1]; 40 µg/100µl) was “-”, the “Cytotoxicity on Vero cells” value ([1]; 50 µg/100µl) was “-” and the “Cytotoxicity on Vero cells” value ([1]; 70 µg/100µl) was “M”. For the same molecule, the “Cytotoxicity on Vero cells” value ([1]; 80 µg/100µl) was “M”, the “Cytotoxicity on Vero cells” value ([1]; 90 µg/100µl) was “M” and the “Cytotoxicity on Vero cells” value ([1]; 100 µg/100µl) was “M”. The “Safety effect on Vero cells (in words)” value [1] was “dense and coloured that made masking to the cell sheet”, the “Viral count (treated)” value ([2]; 20 ug/mL) was 0.54 × 10 ^7 and the “Viral count (treated)” value ([2]; 40 ug/mL) was 0 × 10 ^7. The inhibition at 20 µg/mL [2] was 66%, the inhibition at 40 µg/mL [2] was 100% and the “Antiviral activity against Cox B virus (in words)” value ([2]; at tested concentrations) was “high viral inhibition”. For the same molecule, the inhibition at 20 µg/mL [3] was 0%, the inhibition at 40 µg/mL [3] was 12% and the inhibition at 60 µg/mL [3] was 37%. For the same molecule, the “Viral count (treated)” value ([3]; 20 µg/ml) was 1.6 × 10^7, the “Viral count (treated)” value ([3]; 40 µg/ml) was 1.4 × 10^7 and the “Viral count (treated)” value ([3]; 60 µg/ml) was 1 × 10^7. For the same molecule, the “Effect on viral adsorption (in words)” value [4] was “inhibiting both viral adsorption and replication”, the inhibition at 20 µg/mL [4] was 42% and the inhibition at 40 µg/mL [4] was 57%. The inhibition at 60 µg/mL [4] was 85%, the “Viral count (treated)” value ([4]; 20 µg/ml) was 0.92 × 10^7 and the “Viral count (treated)” value ([4]; 40 µg/ml) was 0.68 × 10^7. The “Viral count (treated)” value ([4]; 60 µg/ml) was 0.24 × 10^7, the “Effect on viral replication (in words)” value [5] was “inhibiting both viral adsorption and replication” and the inhibition at 20 µg/mL [5] was 37%. The inhibition at 40 µg/mL [5] was 48%, the inhibition at 60 µg/mL [5] was 56% and the “Viral count (treated)” value ([5]; 20 µg/ml) was 1 × 10^7. The “Viral count (treated)” value ([5]; 40 µg/ml) was 0.8 × 10^7 and the “Viral count (treated)” value ([5]; 60 µg/ml) was 0.7 × 10^7.

From publication PMC11599599, “Synthesis, characterization, molecular docking, pharmacokinetics, and molecular dynamics of new bis-thiazoles based on bis-thiosemicarbazone as anti-coxsackievirus” (Scientific Reports, 2024)
